Measured values from US11717509B2, “Blend containing carbamate compound for prevention, mitigation, or treatment of schizophrenia” (SK BIOPHARMACEUTICALS CO., LTD., priority 2017, dated 2023).

Tested on: animal model in which schizophrenia-like symptoms were induced by treatment with dizocilpine (MK-801)
Assay: Social interaction animal behavior test in rats with schizophrenia-like symptoms induced by dizocilpine (MK-801)
Assay type: in vivo, rat (Wistar, male)
Conditions: for Social interaction (Mean ± SEM) = total time of active social interactions of sniffing, grooming, licking, mounting and crawling: male Wistar rats in pairs, 5 min observation, dizocilpine 0.1 mg/kg sc 4 h before, aripiprazole 0.003 mg/kg po and/or test compound 3 mg/kg po 1 h before, 20 pairs; for total time average of active social interactions: mean±SEM, aripiprazole 0.003 mg/kg and/or test compound 3 mg/kg po; for total time average of active social interactions / Recovery rate compared to negative control: dizocilpine 0.1 mg/kg sc; for Statistical significance compared to negative control (P < 0.05?) / Statistical significance compared to positive control (P < 0.05?): one-way ANOVA, Dunnett's test; for Statistical significance compared to negative control (P < 0.05?): negative control = dizocilpine only; for Statistical significance compared to negative control (P < 0.05?) / Statistical significance compared to positive control (P < 0.05?) / Recovery rate compared to negative control: aripiprazole 0.003 mg/kg po and/or test compound 3 mg/kg po; for Statistical significance compared to positive control (P < 0.05?): positive control = vehicle group; for Recovery rate compared to negative control: versus dizocilpine-only negative control and vehicle positive control
Text: The antipsychotic activity of the carbamate compounds of Formula 1 and aripiprazole against schizophrenia can be tested through social interaction animal behavior tests used in drug development for the negative symptoms of schizophrenia (Neill J C, Grayson B, Kiss B, Gyertyán I, Ferguson P, Adham N, Effects of cariprazine, a novel antipsychotic, on cognitive deficit and negative symptoms in a rodent model of schizophrenia symptomatology, Eur Neuropsychopharmacol. 2016 January; 26(1):3-14). […] Dizocilpine (MK-801) is an N-methyl-D-aspartate (NMDA) receptor inhibitor. In the dizocilpine-induced (MK-801-induced) social interaction animal behavior test, schizophrenia-like symptoms can be induced by administration of dizocilpine (Rung J P, Carlsson A, Ryden Markinhuhta K, Carlsson M L, (+)-MK-801 induced social withdrawal in rats; a model for negative symptoms of schizophrenia. Prog Neuropsychopharmacol Biol Psychiatry. 2005 June; 29(5):827-32). Aripiprazole, known as an atypical antipsychotic drug, inhibits schizophrenia-like symptoms in proportion to the dose of dizocilpine (Deiana S, Watanabe A, Yamasaki Y, Amada N, Kikuchi T, Stott C, Riedel G, MK-801-induced deficits in social recognition in rats: reversal by aripiprazole, but not olanzapine, risperidone, or cannabidiol. Behav Pharmacol. 2015 December; 26 (8 Spec No): 748-65).
Male rats (Wistar, 4 weeks old, Orient Bio Co., Ltd.) were purchased, divided into 2 groups in an animal breeding room and acclimatized for more than 1 week on separate shelves. The experimental animals were housed and maintained in accordance with the Laboratory Animal Care Standards of the Institutional Animal Care and Use Committee (IACUC) under conditions of light-and-darkness cycle of 12 hours, a temperature of 22 to 25° C., a relative humidity of 40-60% and free access to food and water.
Thus, an animal model is used in which schizophrenia-like symptoms can be induced by treatment of dizocilpine, an N-methyl-D-aspartate (NMDA) receptor inhibitor.
Dizocilpine (purchased from Sigma) was newly prepared by dissolving it in physiological saline used as a vehicle, and 4 hours before the experiment, a 0.1 mg/kg dose was administered subcutaneously in a volume of 1 ml per 1 kg of body weight of the rat.
Aripiprazole and the test compound were newly prepared by dissolving them in 30% polyethylene glycol 400 (Sigma) used as a vehicle. One hour before the experiment, a 0.003 mg/kg dose of aripiprazole and a 3 mg/kg dose of the test compound were administered orally in a volume of 1 ml per 1 kg of body weight of the rat.
The male rats were placed in the same observation box in pairs, allowing 1:1 interaction, and then the total time of sniffing, grooming, licking, mounting and crawling under or over the other rat which can be considered as active social interactions was measured for 5 minutes, and social interaction was evaluated based on that.
All data are expressed as mean±SEM. Statistical analysis of the total time of active social interactions between groups was performed using the GraphPad Prism ver. 5.04 program, and analyzed by one-way ANOVA (one-way analysis of variance) and Dunnett's multiple comparison test.
The recovery rate was calculated as follows.

**Q.** How did the “Social interaction (Mean ± SEM) = total time of active social interactions of sniffing, grooming, licking, mounting and crawling” value turn out when `O=C1CCc2ccc(OCCCCN3CCN(c4cccc(Cl)c4Cl)CC3)cc2N1` [Aripiprazole, 7-{4-[4-(2,3-dichlorophenyl)piperazin-1-yl]butoxy}-3,4-dihydroquinolin-2(1H)-one] was run?
**A.** The value was 57.52 ± 3.04 s.

**Q.** What about the “total time average of active social interactions” value of the same compound?
**A.** The value was 57.52 ± 3.04 s.

**Q.** And the “Statistical significance compared to negative control (P < 0.05?)” value?
**A.** The value was “Not significant”.

**Q.** And the “Statistical significance compared to negative control (P < 0.05?)” value (listed as aripiprazole)?
**A.** The value was “no statistically significant difference”.

**Q.** And the “Statistical significance compared to positive control (P < 0.05?)” value?
**A.** Its value is “Significant”.

**Q.** And the “Statistical significance compared to positive control (P < 0.05?)” value (listed as aripiprazole)?
**A.** The value was “statistically significant difference”.

**Q.** And the “Recovery rate compared to negative control” value?
**A.** Its value is 23.2%.

**Q.** And the “Recovery rate compared to negative control” value (listed as aripiprazole)?
**A.** The value was 23.2%.

**Q.** Which “Social interaction (Mean ± SEM) = total time of active social interactions of sniffing, grooming, licking, mounting and crawling” value does the source give for `C[C@]12N[C@H](Cc3ccccc31)c1ccccc12` [Dizocilpine] here?
**A.** The value was 53.86 ± 2.90 s.

**Q.** And the “total time average of active social interactions” value?
**A.** Its value is 53.86 ± 2.90 s.

**Q.** What about the “Statistical significance compared to positive control (P < 0.05?)” value of the same compound?
**A.** The value was “Significant”.

**Q.** What about the “Recovery rate compared to negative control” value of the same compound?
**A.** The value was 0.0%.

**Q.** Which results are given for `NC(=O)O[C@@H](Cn1ncnn1)c1ccccc1Cl` [Test compound, Carbamic acid (R)-1-(2-chlorophenyl)-2-tetrazol-2-yl-ethyl ester]?
**A.** Social interaction (Mean ± SEM) = total time of active social interactions of sniffing, grooming, licking, mounting and crawling: 56.78 ± 2.19 s; total time average of active social interactions: 56.78 ± 2.19 s; Statistical significance compared to negative control (P < 0.05?): Not significant; Statistical significance compared to negative control (P < 0.05?) (listed as test compound): no statistically significant difference; Statistical significance compared to positive control (P < 0.05?): Significant; Statistical significance compared to positive control (P < 0.05?) (listed as test compound): statistically significant difference; Recovery rate compared to negative control: 18.5%; Recovery rate compared to negative control (listed as test compound): 18.5%
